Measured values: the supplement of paper PMC11451515

Test system: SEM cells
Assay: cell viability relative to DMSO control; higher = less cytotoxic
Conditions: 48 h
Procedure, shortened: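 NOMO1 or SEM (500 cells/well) or P12-Ichikawa (1000 cells/well) leukemia cells were adapted for at least four passages in each medium. They were seeded in 1536-well plates (5 μl) and pin-dosed with library compounds in DMSO over an 11-point threefold series, 47 μM to 0.79 nM. CellTiter-Glo One luminescence was read after 48 h at 37°C. Viability is the per-plate percentage relative to DMSO wells, with cell-free wells as background.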

[1] = HPLM + 10% dialyzed FBS, 0.000781 µM
[2] = HPLM + 10% dialyzed FBS, 0.00234 µM
[3] = HPLM + 10% dialyzed FBS, 0.00702 µM
[4] = HPLM + 10% dialyzed FBS, 0.0211 µM
[5] = HPLM + 10% dialyzed FBS, 0.0632 µM
[6] = HPLM + 10% dialyzed FBS, 0.19 µM
[7] = HPLM + 10% dialyzed FBS, 0.569 µM
[8] = HPLM + 10% dialyzed FBS, 1.71 µM
[9] = HPLM + 10% dialyzed FBS, 5.12 µM
[10] = HPLM + 10% dialyzed FBS, 15.4 µM
[11] = HPLM + 10% dialyzed FBS, 46.1 µM
[12] = RPMI 5 mM glucose + 10% FBS, 0.000781 µM
[13] = RPMI 5 mM glucose + 10% FBS, 0.00234 µM
[14] = RPMI 5 mM glucose + 10% FBS, 0.00702 µM
[15] = RPMI 5 mM glucose + 10% FBS, 0.0211 µM
[16] = RPMI 5 mM glucose + 10% FBS, 0.0632 µM
[17] = RPMI 5 mM glucose + 10% FBS, 0.19 µM
[18] = RPMI 5 mM glucose + 10% FBS, 0.569 µM
[19] = RPMI 5 mM glucose + 10% FBS, 1.71 µM
[20] = RPMI 5 mM glucose + 10% FBS, 5.12 µM
[21] = RPMI 5 mM glucose + 10% FBS, 15.4 µM
[22] = RPMI 5 mM glucose + 10% FBS, 46.1 µM
[23] = RPMI 5 mM glucose + 10% dialyzed FBS, 0.000781 µM
[24] = RPMI 5 mM glucose + 10% dialyzed FBS, 0.00234 µM
[25] = RPMI 5 mM glucose + 10% dialyzed FBS, 0.00702 µM
[26] = RPMI 5 mM glucose + 10% dialyzed FBS, 0.0211 µM
[27] = RPMI 5 mM glucose + 10% dialyzed FBS, 0.0632 µM
[28] = RPMI 5 mM glucose + 10% dialyzed FBS, 0.19 µM
[29] = RPMI 5 mM glucose + 10% dialyzed FBS, 0.569 µM
[30] = RPMI 5 mM glucose + 10% dialyzed FBS, 1.71 µM
[31] = RPMI 5 mM glucose + 10% dialyzed FBS, 5.12 µM
[32] = RPMI 5 mM glucose + 10% dialyzed FBS, 15.4 µM
[33] = RPMI 5 mM glucose + 10% dialyzed FBS, 46.1 µM

In the case of `Nc1nc(F)nc2c1ncn2[C@@H]1O[C@H](COP(=O)(O)O)[C@@H](O)[C@@H]1O`, the cell viability [1] is reported as 107%, the cell viability [2] is reported as 123% and the cell viability [3] is reported as 117%. For the same compound, the cell viability [4] was 113%, the cell viability [5] was 128% and the cell viability [6] was 117%. For the same compound, the cell viability [7] was 123%, the cell viability [8] was 56.3% and the cell viability [9] was 35.7%. The cell viability [10] was 16.6%, the cell viability [11] was 8.32% and the cell viability [12] was 107%. For the same compound, the cell viability [13] was 130%, the cell viability [14] was 116% and the cell viability [15] was 92.1%. It also gave a cell viability [16] of 114%, a cell viability [17] of 123% and a cell viability [18] of 128%. For the same compound, the cell viability [19] was 73.1%, the cell viability [20] was 93.7% and the cell viability [21] was 19.7%. The cell viability [22] was 11.1%, the cell viability [23] was 103% and the cell viability [24] was 126%. For the same compound, the cell viability [25] was 110%, the cell viability [26] was 98.2% and the cell viability [27] was 134%. It also gave a cell viability [28] of 114%, a cell viability [29] of 105% and a cell viability [30] of 52.9%. It also gave a cell viability [31] of 46.3%, a cell viability [32] of 18% and a cell viability [33] of 9.23%.

`CN(C)c1nc(Cc2ccc(NC(=O)c3ccc(C(F)(F)F)cc3)cc2)nc(N(C)C)c1CC(=O)O` was tested, and the cell viability [1] was 104%, the cell viability [2] was 107% and the cell viability [3] was 106%. The cell viability [4] was 100%, the cell viability [5] was 116% and the cell viability [6] was 100%. For the same compound, the cell viability [7] was 123%, the cell viability [8] was 112% and the cell viability [9] was 125%. For the same compound, the cell viability [10] was 116%, the cell viability [11] was 83.4% and the cell viability [12] was 113%. The cell viability [13] was 99.4%, the cell viability [14] was 101% and the cell viability [15] was 93.7%. The cell viability [16] was 111%, the cell viability [17] was 82.8% and the cell viability [18] was 118%. The cell viability [19] was 93.4%, the cell viability [20] was 110% and the cell viability [21] was 100%. For the same compound, the cell viability [22] was 74.7%, the cell viability [23] was 99.1% and the cell viability [24] was 118%. It also gave a cell viability [25] of 102%, a cell viability [26] of 108% and a cell viability [27] of 121%. For the same compound, the cell viability [28] was 117%, the cell viability [29] was 113% and the cell viability [30] was 115%. The cell viability [31] was 109%, the cell viability [32] was 105% and the cell viability [33] was 90%.

`Cc1ccc(C(=O)Nc2cccc(C(F)(F)F)c2)cc1Nc1nc(-c2cccnc2)nc2c1cnn2C` was tested, and the cell viability [1] was 38.9%, the cell viability [2] was 83.8% and the cell viability [3] was 89.1%. For the same compound, the cell viability [4] was 87.7%, the cell viability [5] was 78.7% and the cell viability [6] was 95.3%. It also gave a cell viability [7] of 90.5%, a cell viability [8] of 75.3% and a cell viability [9] of 83.9%. It also gave a cell viability [10] of 59%, a cell viability [11] of 53.4% and a cell viability [12] of 58.7%. The cell viability [13] was 103%, the cell viability [14] was 104% and the cell viability [15] was 102%. It also gave a cell viability [16] of 85.7%, a cell viability [17] of 101% and a cell viability [18] of 83%. The cell viability [19] was 83%, the cell viability [20] was 98.4% and the cell viability [21] was 56.8%. It also gave a cell viability [22] of 60.6%, a cell viability [23] of 31% and a cell viability [24] of 92.1%. The cell viability [25] was 109%, the cell viability [26] was 83.8% and the cell viability [27] was 82.8%. For the same compound, the cell viability [28] was 97.7%, the cell viability [29] was 92.1% and the cell viability [30] was 81.1%. It also gave a cell viability [31] of 113%, a cell viability [32] of 68.5% and a cell viability [33] of 62.1%.

Compound `CC(C)C1CCC(C(=O)N[C@H](Cc2ccccc2)C(=O)O)CC1` (stereo partly specified) has a cell viability [1] of 92.5%, a cell viability [2] of 93.8% and a cell viability [3] of 91.7%. It also gave a cell viability [4] of 108%, a cell viability [5] of 71.1% and a cell viability [6] of 26.3%. It also gave a cell viability [7] of 82.7%, a cell viability [8] of 97.6% and a cell viability [9] of 85.2%. The cell viability [10] was 80.3%, the cell viability [11] was 78.5% and the cell viability [12] was 108%. It also gave a cell viability [13] of 94.1%, a cell viability [14] of 90% and a cell viability [15] of 112%. For the same compound, the cell viability [16] was 80.9%, the cell viability [17] was 21.2% and the cell viability [18] was 62.7%. For the same compound, the cell viability [19] was 85.6%, the cell viability [20] was 98% and the cell viability [21] was 95.4%. The cell viability [22] was 77.8%, the cell viability [23] was 108% and the cell viability [24] was 104%. The cell viability [25] was 103%, the cell viability [26] was 102% and the cell viability [27] was 75.4%. The cell viability [28] was 21.7%, the cell viability [29] was 84.3% and the cell viability [30] was 88.7%. For the same compound, the cell viability [31] was 98.5%, the cell viability [32] was 93.1% and the cell viability [33] was 96.8%.

`C[C@]12CCC3c4ccc(O)cc4CCC3C1CCC2=O` (stereo partly specified) gave a cell viability [1] of 70.1%, a cell viability [2] of 81.6% and a cell viability [3] of 88.8%. The cell viability [4] was 84.5%, the cell viability [5] was 91.4% and the cell viability [6] was 73.6%. It also gave a cell viability [7] of 62.2%, a cell viability [8] of 77.8% and a cell viability [9] of 71.7%. It also gave a cell viability [10] of 42.2%, a cell viability [11] of 58.9% and a cell viability [12] of 94%. It also gave a cell viability [13] of 92.3%, a cell viability [14] of 96.3% and a cell viability [15] of 104%. The cell viability [16] was 88.9%, the cell viability [17] was 106% and the cell viability [18] was 82%. The cell viability [19] was 80.7%, the cell viability [20] was 81.2% and the cell viability [21] was 64.6%. The cell viability [22] was 85%, the cell viability [23] was 103% and the cell viability [24] was 95.4%. It also gave a cell viability [25] of 98.4%, a cell viability [26] of 103% and a cell viability [27] of 116%. The cell viability [28] was 99.6%, the cell viability [29] was 80.7% and the cell viability [30] was 82.8%. For the same compound, the cell viability [31] was 93.2%, the cell viability [32] was 35.6% and the cell viability [33] was 71.4%.

`CC(C(C)N1CC(=O)NC(=O)C1)N1CC(=O)NC(=O)C1` (stereo unspecified) gave a cell viability [1] of 97.2%, a cell viability [2] of 136% and a cell viability [3] of 116%. For the same compound, the cell viability [4] was 125%, the cell viability [5] was 116% and the cell viability [6] was 128%. It also gave a cell viability [7] of 123%, a cell viability [8] of 106% and a cell viability [9] of 95.2%. For the same compound, the cell viability [10] was 58.4%, the cell viability [11] was 40.5% and the cell viability [12] was 73.4%. It also gave a cell viability [13] of 79.9%, a cell viability [14] of 101% and a cell viability [15] of 102%. The cell viability [16] was 92%, the cell viability [17] was 104% and the cell viability [18] was 80.8%. For the same compound, the cell viability [19] was 60.1%, the cell viability [20] was 49% and the cell viability [21] was 31%. For the same compound, the cell viability [22] was 19.7%, the cell viability [23] was 86% and the cell viability [24] was 93.3%. For the same compound, the cell viability [25] was 120%, the cell viability [26] was 134% and the cell viability [27] was 122%. The cell viability [28] was 115%, the cell viability [29] was 128% and the cell viability [30] was 91.3%. For the same compound, the cell viability [31] was 65.7%, the cell viability [32] was 39.1% and the cell viability [33] was 35.1%.

Work on `NC(=O)c1cccc(-c2cc(Nc3ccc(OC(F)(F)F)cc3)ncn2)c1` yielded a cell viability [1] of 82.4%, a cell viability [2] of 92.7% and a cell viability [3] of 95.5%. For the same compound, the cell viability [4] was 91.9%, the cell viability [5] was 87.2% and the cell viability [6] was 111%. For the same compound, the cell viability [7] was 101%, the cell viability [8] was 106% and the cell viability [9] was 87.8%. For the same compound, the cell viability [10] was 82%, the cell viability [11] was 69.3% and the cell viability [12] was 105%. It also gave a cell viability [13] of 116%, a cell viability [14] of 106% and a cell viability [15] of 111%. It also gave a cell viability [16] of 104%, a cell viability [17] of 117% and a cell viability [18] of 112%. For the same compound, the cell viability [19] was 111%, the cell viability [20] was 113% and the cell viability [21] was 101%. The cell viability [22] was 69.1%, the cell viability [23] was 80% and the cell viability [24] was 91.6%. It also gave a cell viability [25] of 96.5%, a cell viability [26] of 91.8% and a cell viability [27] of 95%. It also gave a cell viability [28] of 98.2%, a cell viability [29] of 96.1% and a cell viability [30] of 104%. It also gave a cell viability [31] of 84.8%, a cell viability [32] of 68.9% and a cell viability [33] of 54.1%.
